The source of these data is patent US6090828A, “5-aryleheteroarylalkyl-1,3,5-trisubstituted-1,2,4-triazole compounds for treatment of circulatory disorders” (priority 1997, dated 2000).

Like-named read-outs stand apart in the source and are kept apart here.

For one test, the system named is pressor response to AII. Kind of test: Assay C: In Vivo Intragastric Pressor Assay Response for AII Antagonists. Also noted: species or system rat (male Sprague-Dawley). The conditions noted are these: 3 mg/kg (i.g.), AII 30 ng/kg i.v. bolus; for Duration: followed to 180 minutes; for inhibition in vivo at 3 mg/kg: Rattus norvegicus, po. As for the experimental part:
The catheters were tunneled subcutaneously to exit dorsally, posterior to the head and between the scapulae. The catheters were filled with heparin (1000 units/ml of saline). The rats were returned to their cage and allowed regular rat chow and water ad libitum. After full recovery from surgery (3-4 days), rats were placed in Lucite holders and the arterial line was connected to a pressure transducer. Arterial pressure was recorded on a Gould polygraph (mmHg). Angiotensin II was administered as a 30 ng/kg bolus via the venous catheter delivered in a 50 μl volume with a 0.2 ml saline flush. The pressor response in mm Hg was measured by the difference from pre-injection arterial pressure to the maximum pressure achieved. The AII injection was repeated every 10 minutes until three consecutive injections yielded responses within 4 mmHg of each other. These three responses were then averaged and represented the control response to AII. The test compound was suspended in 0.5% methylcellulose in water and was administered by gavage. The volume administered was 2 ml/kg body weight. The standard dose was 3 mg/kg. Angiotensin II bolus injections were given at 30, 45, 60, 75, 120, 150, and 180 minutes after gavage. The pressor response to AII was measured at each time point. The rats were then returned to their cage for future testing. A minimum of 3 days was allowed between tests. Percent inhibition was calculated for each time point following gavage by the following formula: [(Control Response-Response at time point)/Control Response]×100.

The target of test [1] is smooth muscle angiotensin II receptor. Kind of test: Assay A: Angiotensin II Binding Activity. The conditions noted are these: 50% displacement of specifically bound 125I-AII; rat uterine membranes; pH 7.5; 25° C., 60 min. Here is the method: Compounds of the invention were tested for ability to bind to the smooth muscle angiotensin II receptor using a rat uterine membrane preparation. […] Rat uterine membranes were prepared from fresh tissue. All procedures were carried out at 4° C. Uteri were stripped of fat and homogenized in phosphate-buffered saline at pH 7.4 containing 5 mM EDTA. The homogenate was centrifuged at 1500×g for 20 min., and the supernatant was recentrifuged at 100,000×g for 60 min. The pellet was resuspended in buffer consisting of 2 mM EDTA and 50 mM Tris-HCl (pH 7.5) to a final protein concentration of 4 mg/ml. […] The reaction was initiated by the addition of membrane protein and the mixture was incubated at 25° C. for 60 min. The incubation was terminated with ice-cold 50 mM Tris-HCl (pH 7.5) and the mixture was filtered to separate membrane-bound labelled peptide from the free ligand. The incubation tube and filter were washed with ice-cold buffer. Filters were assayed for radioactivity in a Micromedic gamma counter. Nonspecific binding was defined as binding in the presence of 10 μM of unlabelled AII. Specific binding was calculated as total binding minus nonspecific binding. […] Binding data were analyzed by a nonlinear least-squares curve fitting program.

The target of a further test is T1, rabbit aortic rings (Oryctolagus cuniculus, UniProt P34976).
T1 construct: The thoracic aorta was removed, cleaned of adherent fat and connective tissue and then cut into 3-mm ring segments; from tissue; host or cells: rabbit thoracic aorta rings, endothelium removed
T1 sequence (P34976 1-359): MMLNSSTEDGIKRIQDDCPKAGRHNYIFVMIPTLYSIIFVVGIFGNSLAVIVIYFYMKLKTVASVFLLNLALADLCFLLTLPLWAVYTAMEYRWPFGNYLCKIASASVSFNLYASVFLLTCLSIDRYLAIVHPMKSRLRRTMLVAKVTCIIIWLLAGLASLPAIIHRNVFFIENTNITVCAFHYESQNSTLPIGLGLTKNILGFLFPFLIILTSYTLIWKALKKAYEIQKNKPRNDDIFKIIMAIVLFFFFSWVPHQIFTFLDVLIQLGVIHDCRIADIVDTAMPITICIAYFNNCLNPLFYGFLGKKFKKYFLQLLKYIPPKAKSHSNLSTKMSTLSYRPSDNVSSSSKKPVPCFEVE
As to the kind of experiment: Assay B: In Vitro Vascular Smooth Muscle Response for AII. Also noted: species or system rabbit (male New Zealand white). The conditions noted are these: rabbit aorta rings, two rabbits per antagonist, antagonist 10^-5 M, 5 minutes, AII contraction, Schild. As for the experimental part: The compounds of the invention were tested for antagonist activity in rabbit aortic rings. Male New Zealand white rabbits (2-2.5 kg) were sacrificed using an overdose of pentobarbital and exsanguinated via the carotid arteries. The thoracic aorta was removed, cleaned of adherent fat and connective tissue and then cut into 3-mm ring segments. The endothelium was removed from the rings by gently sliding a rolled-up piece of filter paper into the vessel lumen. The rings were then mounted in a water-jacketed tissue bath, maintained at 37° C., between moveable and fixed ends of a stainless steel wire with the moveable end attached to an FT03 Grass transducer coupled to a Model 7D Grass Polygraph for recording isometric force responses. […] The preparations were equilibrated for one hour before approximately one gram of passive tension was placed on the rings. Angiotensin II concentration-response curves were then recorded (3×10^-10 to 1×10^-5 M). Each concentration of AII was allowed to elicit its maximal contraction, and then AII was washed out repeatedly for 30 minutes before rechallenging with a higher concentration of AII. Aorta rings were exposed to the test antagonist at 10^-5 M for 5 minutes before challenging with AII. Adjacent segments of the same aorta ring were used for all concentration-response curves in the presence or absence of the test antagonist. […] The pA2 value is the concentration of the antagonist which increases the EC50 value for AII by a factor of two. Each test antagonist was evaluated in aorta rings from two rabbits.

A further test deals with angiotensin II receptor. The conditions noted are these: binding experiments, functional assays and in vivo tests; literature; cited from earlier work.
The mark [2] stands for this setting: read-out: pA2 (first of two values) (converted).
Where [3] appears, read: read-out: pA2 (second of two values) (converted).

Turning to “5-[2-[5-[(1-butyl-3-propyl-1H-1,2,4-triazol-5-yl)methyl]-2-pyridinyl]phenyl]-1H-tetrazole [Example 3]”, the Inhibition in the test with pressor response to AII (conscious rats) is reported as 10%. Besides, in the test on pressor response to AII, the Duration was determined as 140 min. Also, the IC50 in test [1] was 150 nM. Moreover, at rabbit aortic rings, the “pA2 (first of two values)” value is given as 7.46 and the “pA2 (second of two values)” value is 7.23.
For `CCCCc1nc(Cl)c(CC(=O)O)n1Cc1ccccc1[N+](=O)[O-]` [2-butyl-4-choloro-1-(2-nitrobenzyl)imidazole-5-acetic acid], the “angiotensin II antagonist activity” value with angiotensin II receptor was “specific competitive angiotensin II antagonist activity”.
As to `CCCCc1nc(Cl)c(CC(=O)O)n1Cc1ccccc1Cl` [2-n-butyl-4-chloro-1-(2-chlorobenzyl)imidazole-5-acetic acid], in the test on angiotensin II receptor, the “angiotensin II antagonist activity” value is on record as “specific competitive angiotensin II antagonist activity”.
For `CCCCc1nc(Cc2ccc(-c3ccccc3-c3nnn[nH]3)nc2)n(CCCC)n1` [Example 1, 5-[2-[5-[(1,3-dibutyl-1H,1,2,4-triazol-5-yl)methyl]-2-pyridinyl]phenyl]-1H-tetrazole], the Duration in the test with pressor response to AII is over 180 min. The same compound came in with an inhibition in vivo at 3 mg/kg in the test with pressor response to AII (conscious rats) of 25%. In test [1], this compound displayed a 50% inhibitory concentration (IC50) of 14 nM. For the same compound, the figures for the Kb at rabbit aortic rings (setting [2]) and on rabbit aortic rings (setting [3]) were 9.33 nM and 15.8 nM, respectively.
In the case of `CCCCn1nc(CCc2cccs2)nc1Cc1ccc(-c2ccccc2-c2nnn[nH]2)nc1` [Example 4, 5-[2-[5-[[1-butyl-3-[2-(2-thienyl)ethyl]-1H-1,2,4-triazol-5-yl]methyl]-2-pyridinyl]phenyl]-1H-tetrazole], in the test with pressor response to AII, the Duration was over 180 min. 3 mg/kg produced 25% inhibition in vivo in the test with pressor response to AII (conscious rats). Besides, the 50% inhibitory concentration (IC50) in test [1] was 13 nM. Besides, the Kb at rabbit aortic rings (setting [2]) is 5.01 nM; at rabbit aortic rings (setting [3]) it was 20.4 nM.
In the same order, the values of `CCCCn1nc(-c2ccccc2Cl)nc1Cc1ccc(-c2ccccc2-c2nnn[nH]2)nc1` [Example 9, 5-[2-[5-[[1-butyl-3-(2-chlorophenyl)-1H-1,2,4-triazol-5-yl]methyl]-2-pyridinyl]phenyl]-1H-tetrazole] are over 180 min, 30%, 54 nM, 5.89 nM and 7.24 nM.
`CCCCn1nc(C(O)CCC)nc1Cc1ccc(-c2ccccc2-c2nnn[nH]2)nc1` (centres unmarked) [Example 10, 5-[2-[5-[[1-butyl-3-(1-hydroxybutyl)-1H-1,2,4-triazol-5-yl]methyl]-2-pyridinyl]phenyl]-1H-tetrazole] came in with a Duration in the test on pressor response to AII of 150 min. The compound also returned an inhibition in vivo at 3 mg/kg in the test on pressor response to AII (conscious rats) of 10%. The same compound yielded an IC50 in test [1] of 21 nM. In addition, the figures for the Kb at rabbit aortic rings (setting [2]) and at rabbit aortic rings (setting [3]) were 12 nM and 27.5 nM, respectively.
In the same order, the values of `CCCn1nc(C(F)(F)CCC)nc1Cc1ccc(-c2ccccc2-c2nnn[nH]2)nc1` [Example 20, 5-[2-[5-[[1-propyl-3-(1,1-difluorobutyl)-1H-1,2,4-triazol-5-yl]methyl]-2-pyridinyl]phenyl]-1H-tetrazole] are 180 min, 15%, 150 nM, 16.6 nM and 26.3 nM.
Compound `CCCCn1nc(C(F)(F)CCC)nc1Cc1ccc(-c2ccccc2-c2nnn[nH]2)nc1` [Example 21, 5-[2-[5-[[1-butyl-3-(1,1-difluorobutyl)-1H-1,2,4-triazol-5-yl]methyl]-2-pyridinyl]phenyl]-1H-tetrazole] gave a Duration in the test with pressor response to AII of over 180 min. At 3 mg/kg the inhibition in vivo in the test on pressor response to AII (conscious rats) was 40%. The same compound displayed an IC50 in test [1] of 26 nM. For the same compound, the Kb is 83.2 nM at rabbit aortic rings (setting [2]) and 17 nM on rabbit aortic rings (setting [3]).
In the same order, the values of `CCCCn1nc(C(=O)N(C)C(C)(C)C)nc1Cc1ccc(-c2ccccc2-c2nnn[nH]2)nc1` [Example 22, 5-[2-[5-[[1-butyl-3-(N-methyl-N-tertbutylamido)-1H-1,2,4-triazol-5-yl]methyl]-2-pyridinyl]phenyl]-1H-tetrazole] are 0 min, 0%, 28 nM, 30.2 nM and 77.6 nM.
In the test on pressor response to AII, `CCCCn1nc(C(OC)OC)nc1Cc1ccc(-c2ccccc2-c2nnn[nH]2)nc1` [Example 26, 5-[2-[5-[[1-butyl-3-dimethoxymethyl-1H-1,2,4-triazol-5-yl]methyl]-2-pyridinyl]phenyl]-1H-tetrazole] showed a Duration of 0 min. Also, at 3 mg/kg the inhibition in vivo in the test with pressor response to AII (conscious rats) was 0%. The same compound displayed a 50% inhibitory concentration (IC50) in test [1] of 27 nM.
In turn, `CCCCn1nc(C(OCC)OCC)nc1Cc1ccc(-c2ccccc2-c2nnn[nH]2)nc1` [Example 27, 5-[2-[5-[[1-butyl-3-diethoxymethyl-1H-1,2,4-triazol-5-yl]methyl]-2-pyridinyl]phenyl]-1H-tetrazole] yielded a Duration in the test on pressor response to AII of 150 min. At 3 mg/kg the inhibition in vivo with pressor response to AII (conscious rats) was 10%. The compound also gave a concentration for half-maximal inhibition (IC50) in test [1] of 9.8 nM. Besides, the results for the Kb on rabbit aortic rings (setting [2]) and on rabbit aortic rings (setting [3]) were 20.4 nM and 28.2 nM, respectively.
The corresponding values for `CCCCn1nc(C2OCCCO2)nc1Cc1ccc(-c2ccccc2-c2nnn[nH]2)nc1` [Example 31, 5-[2-[5-[[1-butyl-3-[2-(1,3-dioxanyl)]-1H-1,2,4-triazol-5-yl]methyl]-2-pyridinyl]phenyl]-1H-tetrazole] are 180 min, 25%, 20 nM, 27.5 nM and 70.8 nM.
In turn, `CCCCn1nc(C2OCC(C)(C)CO2)nc1Cc1ccc(-c2ccccc2-c2nnn[nH]2)nc1` [Example 32, 5-[2-[5-[[1-butyl-3-[2-(5,5-dimethyl-1,3-dioxanyl)]-1H-1,2,4-triazol-5-yl]methyl]-2-pyridinyl]phenyl]-1H-tetrazole] gave a Duration in the test with pressor response to AII of 180 min. This compound had an inhibition in vivo at 3 mg/kg with pressor response to AII (conscious rats) of 20%. Moreover, in test [1], the half-inhibitory concentration (IC50) was determined as 21 nM. In addition, the Kb at rabbit aortic rings (setting [2]) is 20 nM; at rabbit aortic rings (setting [3]) it was 75.9 nM.
In test [1], `CCCCc1nc(Cc2ccc(-c3ccccc3-c3nnn[nH]3)nc2)n(CC(C)(C)C)n1` [Example 35, 5-[2-[5-[(1-neopentyl-3-butyl-1H-1,2,4-triazol-5-yl)methyl]-2-pyridinyl]phenyl]-1H-tetrazole] gave a concentration for half-maximal inhibition (IC50) of 1100 nM. Besides, the Kb on rabbit aortic rings (setting [2]) was 166 nM.
